Test results reported in ChEMBL document CHEMBL4052667 (Bioorg Med Chem, 2017).
Active and inactive are the calls of the source. The rule behind the calls is not given here.

How the values were obtained:
[1] = molecular target: Poly [ADP-ribose] polymerase 1 (Homo sapiens, UniProt P09874); assay: Inhibition of recombinant full length human N-terminal GST-tagged PARP1 expressed in baculovirus infected Sf9 cells using biotinylated substrate after 1 hr by UV/Vis spectrophotometric analysis
[2] = molecular target: Poly [ADP-ribose] polymerase 2 (Homo sapiens, UniProt Q9UGN5); assay: Inhibition of recombinant human N-terminal GST-tagged PARP2 (2 to 583 residues) expressed in baculovirus infected Sf9 cells using biotinylated substrate after 1 hr by UV/Vis spectrophotometric analysis
Sequence of Poly [ADP-ribose] polymerase 2 (Q9UGN5 whole entry, the tested form may be a part): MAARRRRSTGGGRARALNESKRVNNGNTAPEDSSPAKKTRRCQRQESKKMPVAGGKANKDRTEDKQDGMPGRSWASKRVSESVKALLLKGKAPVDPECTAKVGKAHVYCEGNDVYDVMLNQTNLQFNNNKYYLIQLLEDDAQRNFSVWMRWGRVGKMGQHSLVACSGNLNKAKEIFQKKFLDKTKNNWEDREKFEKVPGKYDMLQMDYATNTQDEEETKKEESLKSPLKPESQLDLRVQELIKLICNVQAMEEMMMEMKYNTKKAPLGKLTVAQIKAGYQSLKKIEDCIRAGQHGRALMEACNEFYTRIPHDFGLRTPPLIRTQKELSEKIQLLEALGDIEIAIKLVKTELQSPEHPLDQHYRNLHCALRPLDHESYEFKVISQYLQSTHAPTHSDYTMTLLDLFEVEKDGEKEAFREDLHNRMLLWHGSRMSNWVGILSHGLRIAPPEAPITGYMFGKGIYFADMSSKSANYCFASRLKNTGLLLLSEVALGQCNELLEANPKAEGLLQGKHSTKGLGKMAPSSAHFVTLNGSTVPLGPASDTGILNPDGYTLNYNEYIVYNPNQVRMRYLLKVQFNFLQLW

Histone deacetylase 1 = Histone deacetylase 1 (Homo sapiens, UniProt Q13547); assay: Inhibition of HDAC1 (unknown origin) using acetylated peptide substrate preincubated for 15 mins followed by substrate addition measured after 60 mins by fluorescence analysis
Sequence of Histone deacetylase 1 (Q13547 whole entry): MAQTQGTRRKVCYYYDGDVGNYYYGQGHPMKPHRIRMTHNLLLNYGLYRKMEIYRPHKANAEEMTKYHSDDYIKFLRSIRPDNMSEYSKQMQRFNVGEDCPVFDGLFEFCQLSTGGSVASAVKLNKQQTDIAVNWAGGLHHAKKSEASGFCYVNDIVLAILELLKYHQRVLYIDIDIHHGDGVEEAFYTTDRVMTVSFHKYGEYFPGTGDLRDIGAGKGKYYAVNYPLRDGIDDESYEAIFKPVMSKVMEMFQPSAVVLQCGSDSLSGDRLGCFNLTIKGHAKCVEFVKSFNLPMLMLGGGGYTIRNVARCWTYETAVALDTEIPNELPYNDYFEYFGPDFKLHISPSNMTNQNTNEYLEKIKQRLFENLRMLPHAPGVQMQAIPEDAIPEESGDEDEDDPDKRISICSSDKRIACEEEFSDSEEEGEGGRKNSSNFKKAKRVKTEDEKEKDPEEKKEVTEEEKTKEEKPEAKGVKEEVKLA

[3] = molecular target: T1, Protein deacetylase HDAC6 (Homo sapiens, UniProt Q9UBN7); assay: Inhibition of HDAC6 (unknown origin) using acetylated peptide substrate preincubated for 15 mins followed by substrate addition measured after 60 mins by fluorescence analysis
T1 sequence (Q9UBN7 whole entry): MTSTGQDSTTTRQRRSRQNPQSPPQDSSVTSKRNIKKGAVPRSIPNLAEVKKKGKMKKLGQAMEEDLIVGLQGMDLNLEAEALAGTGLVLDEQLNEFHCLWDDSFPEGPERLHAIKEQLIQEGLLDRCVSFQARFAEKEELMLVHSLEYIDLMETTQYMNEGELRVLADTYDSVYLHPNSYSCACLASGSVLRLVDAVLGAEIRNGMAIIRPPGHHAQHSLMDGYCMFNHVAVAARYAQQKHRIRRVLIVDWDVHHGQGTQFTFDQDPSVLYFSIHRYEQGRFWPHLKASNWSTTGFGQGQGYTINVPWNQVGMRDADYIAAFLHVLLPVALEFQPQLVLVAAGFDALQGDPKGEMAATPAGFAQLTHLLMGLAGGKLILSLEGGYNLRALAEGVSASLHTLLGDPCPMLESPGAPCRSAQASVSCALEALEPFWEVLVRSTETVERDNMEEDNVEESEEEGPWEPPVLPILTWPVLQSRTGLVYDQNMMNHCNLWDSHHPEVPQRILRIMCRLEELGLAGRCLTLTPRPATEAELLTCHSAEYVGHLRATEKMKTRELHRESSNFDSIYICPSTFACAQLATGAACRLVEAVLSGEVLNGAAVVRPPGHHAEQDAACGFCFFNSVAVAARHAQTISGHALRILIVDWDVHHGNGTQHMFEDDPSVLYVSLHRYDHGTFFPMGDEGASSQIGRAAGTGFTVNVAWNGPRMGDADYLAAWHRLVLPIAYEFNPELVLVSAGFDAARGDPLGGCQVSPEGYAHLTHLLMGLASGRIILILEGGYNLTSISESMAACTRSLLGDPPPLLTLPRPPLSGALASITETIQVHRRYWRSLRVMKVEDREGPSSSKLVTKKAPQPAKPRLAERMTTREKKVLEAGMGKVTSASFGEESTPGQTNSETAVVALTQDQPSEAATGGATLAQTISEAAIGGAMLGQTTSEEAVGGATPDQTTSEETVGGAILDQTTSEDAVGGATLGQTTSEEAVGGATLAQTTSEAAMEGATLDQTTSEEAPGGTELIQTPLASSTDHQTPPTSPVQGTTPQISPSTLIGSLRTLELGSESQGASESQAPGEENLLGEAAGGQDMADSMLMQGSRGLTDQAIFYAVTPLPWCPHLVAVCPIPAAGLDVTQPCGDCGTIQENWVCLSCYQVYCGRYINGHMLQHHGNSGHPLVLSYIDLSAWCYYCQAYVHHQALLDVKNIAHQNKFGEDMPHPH

T47D = assay: Antiproliferative activity against human T47D cells after 72 hrs by MTT assay; type: functional, cell-based
MCF7 = assay: Antiproliferative activity against human MCF7 cells after 72 hrs by MTT assay; type: functional, cell-based; details: MCF7, 72 h
MDA-MB-231 [4] = assay: Antiproliferative activity against human MDA-MB-231 cells after 72 hrs by MTT assay; type: functional, cell-based; details: MDA-MB-231, 72 h
HCC827 = assay: Antiproliferative activity against human HCC827 cells after 72 hrs by MTT assay; type: functional, cell-based; details: HCC827, 72 h
HeLa = assay: Antiproliferative activity against human HeLa cells after 72 hrs by MTT assay; type: functional, cell-based
K562 = assay: Antiproliferative activity against human K562 cells after 72 hrs by MTT assay; type: functional, cell-based; details: K562, 72 h
U-937 = assay: Antiproliferative activity against human U937 cells after 72 hrs by MTT assay; type: functional, cell-based; details: U-937, 72 h
MDA-MB-231 [5] = assay: Antiproliferative activity against human MDA-MB-231 cells after 5 days by MTT assay; type: functional, cell-based; details: MDA-MB-231, 120 h
MCF-10A = assay: Antiproliferative activity against human MCF10A cells after 72 hrs by MTT assay; type: cell-based
[6] = Safety index, ratio of compound IC50 to SAHA IC50 for human MCF10A cells; type: ADME, cell-based, MCF-10A; details: read-out: Ratio IC50
Raji [7] = assay: Antiproliferative activity against human Raji cells after 3 days by MTT assay; type: functional, cell-based; details: 72 h
HCC1937 = assay: Antiproliferative activity against human HCC1937 cells after 3 days by MTT assay; type: functional, cell-based; details: HCC1937, 72 h
Raji [8] = assay: Potency index, ratio of SAHA IC50 to compound IC50 for human Raji cells; type: functional
MDA-MB-231 [9] = assay: Induction of apoptosis in human MDA-MB-231 cells assessed as early apoptotic cells at 2.5 uM after 48 hrs by Annexin V-FITC/propidium iodide staining based flow cytometry (reference value: 1.27%); type: functional
MDA-MB-231 [10] = assay: Induction of apoptosis in human MDA-MB-231 cells assessed as late apoptotic cells at 2.5 uM after 48 hrs by Annexin V-FITC/propidium iodide staining based flow cytometry (reference value: 3.82%); type: functional
MDA-MB-231 [11] = assay: Induction of apoptosis in human MDA-MB-231 cells assessed as necrotic cells at 2.5 uM after 48 hrs by Annexin V-FITC/propidium iodide staining based flow cytometry (reference value: 0.024%); type: functional
MDA-MB-231 [12] = assay: Induction of apoptosis in human MDA-MB-231 cells assessed as viable cells at 2.5 uM after 48 hrs by Annexin V-FITC/propidium iodide staining based flow cytometry (reference value: 94.9%); type: functional; details: MDA-MB-231, 48 h, read-out: Activity
MDA-MB-231 [13] = assay: Induction of apoptosis in human MDA-MB-231 cells assessed as early apoptotic cells at 5 uM after 48 hrs by Annexin V-FITC/propidium iodide staining based flow cytometry (reference value: 1.27%); type: functional
MDA-MB-231 [14] = assay: Induction of apoptosis in human MDA-MB-231 cells assessed as late apoptotic cells at 5 uM after 48 hrs by Annexin V-FITC/propidium iodide staining based flow cytometry (reference value: 3.82%); type: functional
MDA-MB-231 [15] = assay: Induction of apoptosis in human MDA-MB-231 cells assessed as necrotic cells at 5 uM after 48 hrs by Annexin V-FITC/propidium iodide staining based flow cytometry (reference value: 0.024%); type: functional
MDA-MB-231 [16] = assay: Induction of apoptosis in human MDA-MB-231 cells assessed as viable cells at 5 uM after 48 hrs by Annexin V-FITC/propidium iodide staining based flow cytometry (reference value: 94.9%); type: functional; details: MDA-MB-231, 48 h, read-out: Activity
MDA-MB-231 [17] = assay: Induction of apoptosis in human MDA-MB-231 cells assessed as early apoptotic cells at 10 uM after 48 hrs by Annexin V-FITC/propidium iodide staining based flow cytometry (reference value: 1.27%); type: functional
MDA-MB-231 [18] = assay: Induction of apoptosis in human MDA-MB-231 cells assessed as late apoptotic cells at 10 uM after 48 hrs by Annexin V-FITC/propidium iodide staining based flow cytometry (reference value: 3.82%); type: functional
MDA-MB-231 [19] = assay: Induction of apoptosis in human MDA-MB-231 cells assessed as necrotic cells at 10 uM after 48 hrs by Annexin V-FITC/propidium iodide staining based flow cytometry (reference value: 0.024%); type: functional
MDA-MB-231 [20] = assay: Induction of apoptosis in human MDA-MB-231 cells assessed as viable cells at 10 uM after 48 hrs by Annexin V-FITC/propidium iodide staining based flow cytometry (reference value: 94.9%); type: functional; details: MDA-MB-231, 48 h, read-out: Activity
MDA-MB-231 [21] = assay: Induction of apoptosis in human MDA-MB-231 cells assessed as reduction in full length PARP level measured after 24 hrs by Western blot analysis; type: functional, cell-based
MDA-MB-231 [22] = assay: Induction of apoptosis in human MDA-MB-231 cells assessed as increase in cleave PARP level measured after 24 hrs by Western blot analysis; type: functional, cell-based
Homo sapiens [23] = species on record: Homo sapiens; assay: Inhibition of HDAC in human MDA-MB-231 cells assessed as increase in acetylation of histone H3K9 level up to 10 uM after 24 hrs by Western blot analysis; type: cell-based
Homo sapiens [24] = species on record: Homo sapiens; assay: Inhibition of HDAC in human MDA-MB-231 cells assessed as increase in hyperacetylation of histone H4K8 level up to 10 uM after 24 hrs by Western blot analysis; type: cell-based
MDA-MB-231 [25] = assay: Induction of apoptosis in human MDA-MB-231 cells assessed as increase in gamma-H2AX level up to 10 uM after 24 hrs by Western blot analysis; type: functional, cell-based
MDA-MB-231 [26] = assay: Induction of apoptosis in human MDA-MB-231 cells assessed as increase in cleave caspase-3 level up to 10 uM measured after 24 hrs by Western blot analysis; type: functional, cell-based
MDA-MB-231 [27] = assay: Induction of apoptosis in human MDA-MB-231 cells assessed as increase in cleave caspase-7 level up to 10 uM measured after 24 hrs by Western blot analysis; type: functional, cell-based
MDA-MB-231 [28] = assay: Induction of apoptosis in human MDA-MB-231 cells assessed as increase in cleave caspase-8 level up to 10 uM measured after 24 hrs by Western blot analysis; type: functional, cell-based
MDA-MB-231 [29] = assay: Induction of apoptosis in human MDA-MB-231 cells assessed as increase in cleave caspase-9 level at 10 uM measured after 24 hrs by Western blot analysis; type: functional, cell-based
MDA-MB-231 [30] = assay: Decrease in BRCA1 protein level in human MDA-MB-231 cells up to 10 uM measured after 24 hrs by Western blot analysis; type: functional, cell-based
MDA-MB-231 [31] = assay: Decrease in RAd51 protein level in human MDA-MB-231 cells up to 10 uM measured after 24 hrs by Western blot analysis; type: functional, cell-based
MDA-MB-231 [32] = assay: Induction of apoptosis in human MDA-MB-231 cells after 48 hrs by Annexin V-FITC/propidium iodide staining based flow cytometry; type: functional, cell-based

Sequence of Poly [ADP-ribose] polymerase 1 (P09874 whole entry, the tested form may be a part): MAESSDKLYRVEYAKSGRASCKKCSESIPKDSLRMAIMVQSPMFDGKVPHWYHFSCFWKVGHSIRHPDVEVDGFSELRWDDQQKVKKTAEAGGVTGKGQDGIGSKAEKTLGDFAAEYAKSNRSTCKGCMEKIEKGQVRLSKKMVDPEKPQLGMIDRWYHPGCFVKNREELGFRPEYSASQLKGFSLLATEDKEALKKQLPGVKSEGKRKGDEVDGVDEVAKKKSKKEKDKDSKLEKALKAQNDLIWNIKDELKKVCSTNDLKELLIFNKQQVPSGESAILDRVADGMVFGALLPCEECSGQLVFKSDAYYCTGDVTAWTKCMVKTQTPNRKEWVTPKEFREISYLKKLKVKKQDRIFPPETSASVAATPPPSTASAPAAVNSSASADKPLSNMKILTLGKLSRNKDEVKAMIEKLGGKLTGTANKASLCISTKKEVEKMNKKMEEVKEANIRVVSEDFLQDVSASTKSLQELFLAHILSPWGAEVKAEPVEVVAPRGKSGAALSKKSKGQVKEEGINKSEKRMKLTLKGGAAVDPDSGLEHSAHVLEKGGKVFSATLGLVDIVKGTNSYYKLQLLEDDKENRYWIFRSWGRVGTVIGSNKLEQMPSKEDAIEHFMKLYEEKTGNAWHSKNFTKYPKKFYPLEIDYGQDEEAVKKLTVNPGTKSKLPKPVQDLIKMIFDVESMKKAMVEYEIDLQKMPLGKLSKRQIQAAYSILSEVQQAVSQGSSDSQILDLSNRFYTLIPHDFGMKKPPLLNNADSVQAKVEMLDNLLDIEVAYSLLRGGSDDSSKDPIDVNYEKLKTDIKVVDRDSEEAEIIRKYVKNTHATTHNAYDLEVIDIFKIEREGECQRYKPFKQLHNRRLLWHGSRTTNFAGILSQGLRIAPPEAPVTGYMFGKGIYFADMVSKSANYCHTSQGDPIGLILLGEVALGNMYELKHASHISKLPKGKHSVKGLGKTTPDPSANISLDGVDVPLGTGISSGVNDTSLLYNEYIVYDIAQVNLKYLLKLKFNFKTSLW

IC50 [1]: 68.2 nM | IC50 [2]: 5.02 nM | IC50 (Histone deacetylase 1): 27.3 nM | IC50 [3]: 8.21 nM | IC50 (T47D): 2140 nM | IC50 (MCF7): 3550 nM | IC50 (MDA-MB-231 [4]): 1540 nM | IC50 (HCC827): 1790 nM | IC50 (HeLa): 5100 nM | IC50 (K562): 5550 nM | IC50 (U-937): 4500 nM | IC50 (MDA-MB-231 [5]): 220 nM | IC50 (Raji [7]): 1290 nM | IC50 (HCC1937): 2020 nM
Structure (SMILES): O=C(/C=C/c1ccc(CCNC(=O)c2cc(Cc3n[nH]c(=O)c4ccccc34)ccc2F)cc1)NO
IC50 (MCF-10A): 8650 nM | selectivity ratio [6]: 4.1 | Ratio IC50 (Raji [8]): 7 | Activity (MDA-MB-231 [9]): 10.4% | Activity (MDA-MB-231 [10]): 8.03% | Activity (MDA-MB-231 [11]): 2.29% | viability at 2.5 µM (MDA-MB-231 [12]): 79.2% | Activity (MDA-MB-231 [13]): 28.6% | Activity (MDA-MB-231 [14]): 33.5% | Activity (MDA-MB-231 [15]): 2.79% | viability at 5 µM (MDA-MB-231 [16]): 35.1% | Activity (MDA-MB-231 [17]): 47% | Activity (MDA-MB-231 [18]): 45.8% | Activity (MDA-MB-231 [19]): 0.447% | viability at 10 µM (MDA-MB-231 [20]): 6.79% | Activity (MDA-MB-231 [21]): Dose-dependent effect | Activity (MDA-MB-231 [22]): Dose-dependent effect | inhibition (Homo sapiens [23]): Active | inhibition (Homo sapiens [24]): Active | Activity (MDA-MB-231 [25]): Active | Activity (MDA-MB-231 [26]): Active | Activity (MDA-MB-231 [27]): Active | Activity (MDA-MB-231 [28]): Active | Activity (MDA-MB-231 [29]): Active | Activity (MDA-MB-231 [30]): Active | Activity (MDA-MB-231 [31]): Active | Activity (MDA-MB-231 [32]): Dose-dependent effect
